Laboratory results as given in patent US9663526B2, “Aminopyrimidinyl compounds” (Pfizer Inc., priority 2014, dated 2017).
Read-outs that look alike come from different tables or passages of the source.

What was measured:
Type in all cases: biochemical
[1] = molecular target: recombinant human kinase domain of JAK3 (Homo sapiens (Human), UniProt P52333); assay: JAK Caliper enzyme assay at 1 mM ATP (JAK3); conditions: 1 mM ATP; read-out: IC50 (nM) JAK3;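 note: microfluidic mobility-shift readout of synthetic peptide phosphorylation, percent product converted from peak heights, normalized to DMSO-only wells as uninhibited baseline, room temperature incubation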
[2] = molecular target: recombinant human kinase domain of JAK1 (Homo sapiens (Human), UniProt P23458); assay: JAK Caliper enzyme assay at 1 mM ATP (JAK1);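 note: microfluidic mobility-shift readout of synthetic fluorescent peptide phosphorylation, percent product converted from peak height, inhibition relative to DMSO-only wells as uninhibited baseline, room temperature incubation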
[3] = molecular target: recombinant human kinase domain of TYK2 (Homo sapiens (Human), UniProt P29597); assay: JAK Caliper enzyme assay at 1 mM ATP (TYK2); conditions: 1 mM ATP; read-out: IC50 (nM) TYK2;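 note: microfluidic mobility-shift readout of synthetic peptide phosphorylation by TYK2, tuned to 20–30% conversion at room temperature, reaction stopped with EDTA, DMSO-only wells as uninhibited baseline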
[4] = molecular target: recombinant human kinase domain of JAK2 (Homo sapiens (Human), UniProt O60674); assay: JAK Caliper enzyme assay at 1 mM ATP (JAK2);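 note: microfluidic mobility-shift read-out of fluorescent synthetic peptide phosphorylation, percent product converted from peak heights, room temperature, DMSO-only wells as uninhibited baseline, inhibition curve fit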
[5] = 1 mM ATP, read-out: IC50 (nM) JAK1

recombinant human kinase domain of JAK2, sequence (O60674 849-1124): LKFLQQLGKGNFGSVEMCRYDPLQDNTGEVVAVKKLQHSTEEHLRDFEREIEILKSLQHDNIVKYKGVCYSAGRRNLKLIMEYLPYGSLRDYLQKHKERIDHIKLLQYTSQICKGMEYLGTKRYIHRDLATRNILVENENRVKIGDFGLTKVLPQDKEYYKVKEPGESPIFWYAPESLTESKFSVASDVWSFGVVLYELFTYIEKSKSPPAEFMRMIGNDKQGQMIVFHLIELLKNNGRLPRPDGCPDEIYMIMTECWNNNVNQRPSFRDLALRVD
recombinant human kinase domain of JAK1, sequence (P23458 875-1153): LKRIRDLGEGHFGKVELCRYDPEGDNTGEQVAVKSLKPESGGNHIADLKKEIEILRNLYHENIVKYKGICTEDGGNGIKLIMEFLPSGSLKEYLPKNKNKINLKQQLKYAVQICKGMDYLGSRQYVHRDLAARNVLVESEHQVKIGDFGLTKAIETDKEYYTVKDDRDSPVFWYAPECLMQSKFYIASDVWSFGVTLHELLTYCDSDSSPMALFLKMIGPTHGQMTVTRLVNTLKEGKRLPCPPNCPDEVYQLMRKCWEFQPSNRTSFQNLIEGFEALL
recombinant human kinase domain of JAK3, sequence (P52333 822-1111): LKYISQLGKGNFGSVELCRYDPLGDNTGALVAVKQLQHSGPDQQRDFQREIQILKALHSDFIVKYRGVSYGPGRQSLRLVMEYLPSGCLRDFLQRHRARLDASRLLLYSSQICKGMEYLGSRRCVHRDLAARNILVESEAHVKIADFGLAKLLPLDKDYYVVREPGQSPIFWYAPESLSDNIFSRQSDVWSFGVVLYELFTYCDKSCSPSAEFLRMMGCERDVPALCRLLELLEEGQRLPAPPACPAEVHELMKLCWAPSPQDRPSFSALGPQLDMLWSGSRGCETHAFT
recombinant human kinase domain of TYK2, sequence (P29597 897-1176): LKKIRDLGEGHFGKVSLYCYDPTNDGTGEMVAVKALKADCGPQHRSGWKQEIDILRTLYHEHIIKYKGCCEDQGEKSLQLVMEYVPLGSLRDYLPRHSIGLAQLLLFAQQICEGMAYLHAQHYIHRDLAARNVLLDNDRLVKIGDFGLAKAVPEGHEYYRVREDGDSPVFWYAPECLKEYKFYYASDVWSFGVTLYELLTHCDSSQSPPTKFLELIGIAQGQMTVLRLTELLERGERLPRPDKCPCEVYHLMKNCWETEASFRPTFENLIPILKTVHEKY

Compound	IC50 [1]	IC50 [2, 5]	IC50 [3]	IC50 [4]	IC50 [2]
CNC(=O)c1ncc(Nc2ncc(F)c(N3C[C@@H]4[C@H](C)[C@]4(NC(=O)C4CC4)C3)n2)cc1C [Example 101, 5-[(4-{(1R,5S,6S)-1-[(cyclopropylcarbonyl)amino]-6-methyl-3-azabicyclo[3.1.0]hex-3-yl}-5-fluoropyrimidin-2-yl)amino]-N,3-dimethylpyridine-2-carboxamide]	> 10000 nM	1880 nM	663 nM	2910 nM	–
CNC(=O)c1ncc(Nc2nccc(N3C[C@H]4CC[C@@H](C3)N4C(=O)[C@H]3CC3(F)F)n2)cc1F [Example 28, 5-({4-[(1R,5S)-8-{[(1R)-2,2-difluorocyclopropyl]carbonyl}-3,8-diazabicyclo[3.2.1]oct-3-yl]pyrimidin-2-yl}amino)-3-fluoro-N-methylpyridine-2-carboxamide]	> 10000 nM	–	736 nM	8150 nM	1370 nM
O=C(C1CC1)N1[C@@H]2CC[C@H]1CN(c1ccnc(Nc3cnsc3)n1)C2 [Example 52, cyclopropyl{(1R,5S)-3-[2-(1,2-thiazol-4-ylamino)pyrimidin-4-yl]-3,8-diazabicyclo[3.2.1]oct-8-yl}methanone]	> 10000 nM	172 nM	93 nM	1240 nM	–
C[C@@H]1[C@@H]2CN(c3nc(Nc4cnn(C5COC5)c4)ncc3F)C[C@]12NC(=O)[C@@H]1CC1(F)F [Example 99, (1S)-2,2-difluoro-N-[(1S,5R,6R)-3-(5-fluoro-2-{[1-(oxetan-3-yl)-1H-pyrazol-4-yl]amino}pyrimidin-4-yl)-6-methyl-3-azabicyclo[3.1.0]hex-1-yl]cyclopropanecarboxamide]	4940 nM	65 nM	26 nM	391 nM	–
CNC(=O)c1ncc(Nc2nccc(N3C[C@H]4CC[C@@H](C3)N4C[C@H]3CC3(F)F)n2)cc1C [Example 68, 5-({4-[(1R,5S)-8-{[(1R)-2,2-difluorocycloproDyl]methyl}-3,8-diazabicyclo[3.2.1]oct-3-yl]pyrimidin-2-yl}amino)-N,3-dimethylpyridine-2-carboxamide]	> 10000 nM	85 nM	22 nM	188 nM	–
CCCNC(=O)c1cc(Nc2ncc(F)c(N3C[C@H]4CC[C@@H](C3)N4C(=O)C3CC3)n2)n[nH]1 [Example 2, 3-({4-[(1R,5S)-8-(cyclopropylcarbonyl)-3,8-diazabicyclo[3.2.1]oct-3-yl]-5-fluoropyrimidin-2-yl}amino)-N-propyl-1H-pyrazole-5-carboxamide]	> 10000 nM	1550 nM	432 nM	4720 nM	–
CCNC(=O)c1ccc(Nc2ncc(F)c(N3C[C@H]4CC[C@@H](C3)N4C(=O)C(F)(F)F)n2)cc1C [Example 72, N-ethyl-4-({5-fluoro-4-[8-(trifluoroacetyl)-3,8-diazabicyclo[3.2.1]oct-3-yl]pyrimidin-2-yl}amino)-2-methylbenzamide]	411 nM	81 nM	–	151 nM	–
CCNC(=O)c1ccc(Nc2ncc(F)c(N3CC4CC(C3)N4C(=O)C(F)(F)F)n2)cc1C [Example 116, N-ethyl-4-({5-fluoro-4-[6-(trifluoroacetyl)-3,6-diazabicyclo[3.1.1]hept-3-yl]pyrimidin-2-yl}amino)-2-methylbenzamide]	9820 nM	1470 nM	20 nM	–	–
NS(=O)(=O)c1ccc(Nc2ncc(F)c(N3C[C@H]4CC[C@@H](C3)N4C(=O)C3CC3)n2)cn1 [Example 4, 5-({4-[(1R,5S)-8-(cyclopropylcarbonyl)-3,8-diazabicyclo[3.2.1]oct-3-yl]-5-fluoropyrimidin-2-yl}amino)pyridine-2-sulfonamide]	> 10000 nM	659 nM	176 nM	–	–
CCNC(=O)c1ccc(Nc2ncc(F)c(N3C[C@H]4CC[C@@H](C3)N4C(=O)OC(C)(C)C)n2)cc1C [Example 73, tert-butyl 3-(2-{[4-(ethylcarbamoyl)-3-methylphenyl]amino}-5-fluoropyrimidin-4-yl)-3,8-diazabicyclo[3.2.1]octane-8-carboxylate]	1770 nM	260 nM	17 nM	170 nM	–
NC(=O)c1ncc(Nc2nccc(N3C[C@H]4CC[C@@H](C3)N4C(=O)[C@@H]3CC3(F)F)n2)cc1F [Example 117, 5-({4-[(1R,5S)-8-{[(1S)-2,2-Difluorocyclopropyl]carbonyl}-3,8-diazabicyclo[33.2.1]oct-3-yl]pyrimidin-2-yl}amino)-3-fluoropyridine-2-carboxamide]	> 10000 nM	114 nM	–	452 nM	–
Cc1cc(Nc2nccc(N3C[C@H]4CC[C@@H](C3)N4C(=O)C3CC3(F)F)n2)cnc1C(N)=O (stereo partly drawn) [Example 34, 5-[(4-{(1R,5S)-8-[(2,2-difluorocyclopropyl)carbonyl]-3,8-diazabicyclo[3.2.1]oct-3-yl}pyrimidin-2-yl)amino]-3-methylpyridine-2-carboxamide]	> 10000 nM	152 nM	–	377 nM	–
CCNC(=O)c1ccc(Nc2nccc(N3C[C@H]4CC[C@@H](C3)N4C(=O)CC#N)n2)cc1 [Example 13, 4-({4-[(1R,5S)-8-(cyanoacetyl)-3,8-diazabicyclo[3.2.1]oct-3-yl]pyrimidin-2-yl}amino)-N-ethylbenzamide]	> 10000 nM	41 nM	–	199 nM	–
Cn1cc(Nc2nccc(N3C[C@H]4CC[C@@H](C3)N4C(=O)NCCC#N)n2)cn1 [Example 47, (1R,5S)—N-(2-cyanoethyl)-3-{2-[(1-methyl-1H-pyrazol-4-yl)amino]pyrimidin-4-yl}-3,8-diazabicyclo[3.2.1]octane-8-carboxamide]	> 10000 nM	42 nM	65 nM	–	–
CNC(=O)c1ncc(Nc2nccc(N3C[C@H]4CC[C@@H](C3)N4CC3(C)COC3)n2)cc1C [Example 54, N,3-dimethyl-5-[(4-{(1R,5S)-8-[(3-methyloxetan-3-yl)methyl]-3,8-diazabicyclo[3.2.1]oct-3-yl}pyrimidin-2-yl)amino]pyridine-2-carboxamide]	4290 nM	19 nM	8 nM	–	–
C[C@@H]1[C@@H]2CN(c3nc(Nc4cnc([C@@H](C)O)c(Cl)c4)ncc3F)C[C@]12NC(=O)C1CC1 [Example 106, N-{(1S,5R,6R)-3-[2-({5-chloro-6-[(1R)-1-hydroxyethyl]pyridin-3-yl}amino)-5-fluoropyrimidin-4-yl]-6-methyl-3-azabicyclo[3.1.0]hex-1-yl}cyclopropanecarboxamide]	> 10000 nM	–	–	9410 nM	–
O=C([C@H]1CC1(F)F)N1[C@@H]2CC[C@H]1CN(c1ccnc(Nc3cn[nH]c3)n1)C2 [Example 50, ((1R,5S)-3-(2-((1H-Pyrazol-4-yl)amino)pyrimidin-4-yl)-3,8-diazabicyclo[3.2.1]octan-8-yl)((R)-2,2-difluorocyclopropyl)methanone]	> 10000 nM	478 nM	–	3420 nM	–
N#CC1(CN2[C@@H]3CC[C@H]2CN(c2ccnc(Nc4cn[nH]c4)n2)C3)CC1 [Example 71, 1-({(1R,5S)-3-[2-(1H-pyrazol-4-ylamino)pyrimidin-4-yl]-3,8-diazabicyclo[3.2.1]oct-8-yl}methyl)cyclopropanecarbonitrile]	> 10000 nM	153 nM	152 nM	–	–
